One assay addresses T1, PR-A (Homo sapiens, UniProt P06401).
T1 sequence (P06401 1-769 isoform P06401-2): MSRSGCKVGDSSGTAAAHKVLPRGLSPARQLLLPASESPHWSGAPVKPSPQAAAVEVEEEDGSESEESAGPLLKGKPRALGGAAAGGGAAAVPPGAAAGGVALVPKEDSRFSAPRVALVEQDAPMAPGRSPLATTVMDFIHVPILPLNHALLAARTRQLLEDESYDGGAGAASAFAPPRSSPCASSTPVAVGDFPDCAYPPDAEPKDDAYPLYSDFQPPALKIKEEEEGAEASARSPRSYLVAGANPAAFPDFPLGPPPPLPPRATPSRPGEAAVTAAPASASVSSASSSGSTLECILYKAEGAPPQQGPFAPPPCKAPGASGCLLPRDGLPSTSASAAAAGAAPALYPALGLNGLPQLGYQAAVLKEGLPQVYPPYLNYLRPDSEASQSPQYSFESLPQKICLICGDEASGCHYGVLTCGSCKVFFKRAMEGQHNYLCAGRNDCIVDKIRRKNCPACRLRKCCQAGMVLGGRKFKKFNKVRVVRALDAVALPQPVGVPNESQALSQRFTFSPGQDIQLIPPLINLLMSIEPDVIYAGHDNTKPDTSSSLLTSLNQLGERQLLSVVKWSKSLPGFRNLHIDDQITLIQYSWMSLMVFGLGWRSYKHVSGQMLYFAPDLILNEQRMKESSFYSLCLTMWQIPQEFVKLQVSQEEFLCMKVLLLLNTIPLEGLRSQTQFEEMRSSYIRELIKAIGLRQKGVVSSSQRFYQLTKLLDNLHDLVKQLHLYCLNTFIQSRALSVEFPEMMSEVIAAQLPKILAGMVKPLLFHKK
Kind of assay: PR-A transcriptional reporter assay, agonist mode (HEPG2 cells). Details: subcloning full-length PRa into pCMX; expressed in transfected cells; host or cells: HEPG2. As to conditions: % of maximal R5020-stimulated activity. The class given is cell-based. The procedure: Transcriptional assays were performed by seeding 100 μL of cells at a density of 250,000 cells/mL into 96-well cell culture plates in RPMI 1640 supplemented with 5% charcoal-stripped serum and allowed to attach overnight. […] Triplicate transfections were performed using 418 ng reporter vector (2X PRE-Luciferase for PR-A and PR-B, MMTV-Luciferase for MR), 50 ng CMVpRL (normalization vector), 10 ng NHR expression vector (CMX-PR-A, pCDNA-PR-B or 6R-MR), and 0.7 μL lipofectin. […] The final agonist concentration used in the antagonist assays was 1 nM. Following 24 hr incubation, the medium was removed and the cells were lysed in 40 μL of lysis buffer (25 mM Tris Phosphate, 2 mM CDTA, 10% Glycerol, 0.5% Triton X-100, 2 mM DTT). Firefly luciferase activity was measured immediately following the addition of 40 μL luciferase buffer (20 mM tricine, 0.1 mM EDTA, 1.07 mM (MgCO3)4 Mg(OH)2· 5H2O, 2.67 mM MgSO4, 33.3 mM DTT, 270 μM Coenzyme A, 470 μM luciferin, 530 μM ATP).

Assay [1] concerns the target T2, GR (Homo sapiens, UniProt P04150).
T2 sequence (P04150 1-777): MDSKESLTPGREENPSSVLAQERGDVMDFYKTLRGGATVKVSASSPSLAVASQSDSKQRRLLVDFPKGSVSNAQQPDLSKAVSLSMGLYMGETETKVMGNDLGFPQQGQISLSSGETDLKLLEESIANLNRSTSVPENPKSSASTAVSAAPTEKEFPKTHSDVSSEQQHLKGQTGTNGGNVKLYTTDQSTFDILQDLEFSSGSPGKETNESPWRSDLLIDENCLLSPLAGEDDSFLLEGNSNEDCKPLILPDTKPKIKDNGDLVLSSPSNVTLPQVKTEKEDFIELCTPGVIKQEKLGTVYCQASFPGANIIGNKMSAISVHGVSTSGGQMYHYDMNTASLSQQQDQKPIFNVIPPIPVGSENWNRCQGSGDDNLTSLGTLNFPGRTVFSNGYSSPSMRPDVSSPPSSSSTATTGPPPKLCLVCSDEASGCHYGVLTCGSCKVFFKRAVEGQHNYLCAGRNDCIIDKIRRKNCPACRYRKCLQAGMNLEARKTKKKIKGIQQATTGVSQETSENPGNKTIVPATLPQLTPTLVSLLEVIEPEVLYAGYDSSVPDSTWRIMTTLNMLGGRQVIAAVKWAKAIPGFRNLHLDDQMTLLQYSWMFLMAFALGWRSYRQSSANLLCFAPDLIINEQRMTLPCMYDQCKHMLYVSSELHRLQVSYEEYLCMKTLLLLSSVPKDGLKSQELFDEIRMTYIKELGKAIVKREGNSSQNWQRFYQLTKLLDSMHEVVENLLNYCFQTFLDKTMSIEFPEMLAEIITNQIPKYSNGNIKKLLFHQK
Kind of assay: GR competitive radioligand binding assay. The procedure: Reactions were conducted in 96-well plates in TEGM (10 mM Tris-HCl pH 7.2, 1 mM EDTA, 10% glycerol, 1 mM β-mercaptoethanol, 10 mM sodium molybdate). […] All reactions were set up in duplicates and incubated at 4°C overnight. Receptor-bound ^3H-DEX was isolated by ultrafiltration using a Unifilter-96 GF/C filter plate (Perkin Elmer), eluted in 30 µL Microscint-20 and quantified using a scintillation counter (Top Count).

The target in assay [2] is T2, GR. Kind of assay: GR transcriptional reporter assay, agonist mode (CV1 cells). The class given is cell-based. As to conditions: CV-1; % of maximal dexamethasone-stimulated activity. As for the experimental part:
CV1 cells were maintained in MEM supplemented with 10% FBS. Transcriptional assays were performed by seeding 12 mL of cells at a density of 250,000 cells/mL into a T-75 cell culture flask in MEM supplemented with 5% charcoal-stripped serum and allowed to attach overnight. Cells were transiently transfected using FuGENE 6 (Roche Applied Science). […] Transfected cells were incubated overnight then split into four 96-well tissue culture plates and incubated for 4 hr followed by compound addition. […] The final agonist concentration used in the antagonist assays was 10 nM.
(In general: Reporter assays use an easily measured gene product as a stand-in for the process of interest.)

Read-outs that look alike come from different tables or passages of the source.

The term Emax denotes the size of the effect at its maximum, as opposed to the concentration needed. For orientation: IC50 means the concentration at which inhibition is half-maximal. On to `CC/C(=C(\c1ccc(O)cc1)c1ccc(OCCN(C)C)cc1)c1ccccc1` [4-OH Tam, 4-hydroxytamoxifen], for which the Emax at PR-A came out at 0.04 ± 0.06%; at GR [2] it was 1.99 ± 1.52%. The IC50 at GR [1] (3.0 nM 3H-dexamethasone, read-out: GR IC50) is more than 1800 nM.

In turn, `C[C@]12CC[C@@H]3c4ccc(O)cc4C[C@@H](CCCCCCCCC[S+]([O-])CCCC(F)(F)C(F)(F)F)[C@H]3[C@@H]1CC[C@@H]2O` (stereo partly drawn) [Fulvestrant] came in with a half-maximal inhibitory concentration (IC50) on GR [1] of 817 nM.

For `CC/C(=C(/c1ccc(/C=C/C(=O)O)cc1)c1ccc2[nH]ncc2c1)c1ccc(F)cc1Cl` [GDC-0810], the Emax on PR-A came to 6.68 ± 7.97%; on GR [2], 1.78 ± 1.21%.

The values above are taken from publication PMC4961458 (eLife, 2016).
